Measured values: patent publication US6603023B2 (priority 1996, dated 2003)
Where “and” joins values, the source holds several entries; their conditions need not be identical. Equal values may be shown once. Where a name gives a salt, the structure may show the parent alone. Read-outs that look alike come from different tables or passages of the source. Marks after values point to notes of the source that are not given here.

Assays:
MCF-7 = test: SRB cytotoxicity, MCF-7; assay type: cell-based, human; conditions: Table 1C; SRB, 72 h; read-out: IC50
Method: The cytotoxicity of the drug toward the monolayer cell cultures (such as DC-3F, MCF-7, SK-N-As and sublines) was determined in 96-well microtiter plates by the SRB method as described by Skehan and co-workers (Skehan, P., et al., J. Natl. Cancer Inst. 1990, 82, 1107-1112) for measuring the cellular protein content. Cultures were fixed with trichloroacetic acid and then stained for 30 min with 0.4% suforhodamine B dissolved in 1% acetic acid. Unbound dye was removed by acetic acid washes, and the protein-bound dye was extracted with an unbuffered Tris base (tris(hydroxy-methyl)aminomethane) for determination of absorbance at 570 nm in a 96-well microtiter plate reader. The experiments were carried out in duplicate. Each run entailed six to seven concentrations of the tested drugs. Data were analyzed with the median-effect plot (Chou, T.-C. & Talalay, P. T. (1984) Adv. Enzyme Regul. 22, 27-55) using a previously described computer program (Chou, J., & Chou T.-C. 1987, Dose-effect analysis with microcomputers: Quantitation of ED50, synergism, antagonism, low-dose risk, reception-ligand binding and enzyme kinetics, IBM-PC software and manual, Biosoft, Cambridge, U.K.).

[1] = Toxicity in normal nude mice; assay type: in vivo, athymic nude mice; conditions: for mice died of toxicity: epothilone B 0.6 mg/kg QDx4 i.p.
Method: For in vivo studies, paclitaxel in Cremophor-EtOH was further diluted with DMSO as needed. Vinblastine sulfate (Velban) (Eli Lilly & Co. Indianapolis, Ind.), and doxorubicin or adriamycin HCl (DX or Adr) (Pharmacia, Columbus, Ohio) in saline were diluted with DMSO as needed. DMSO was used as a vehicle for epothilones. Each mouse received ≦40 μL DMSO in all experiments.
The toxicity of EpoB and dEpoB was compared in normal athymic nude mice on the daily i.p. schedule. EpoB at 0.6 mg/kg, QDX4, i.p. led to lethality in all eight mice. […] Similar leukopenia was found with paclitaxel. Some obstructive fecal mass in the large intestine was noted following Epo treatments in the preliminary study.

[2] = system: human mammary carcinoma MX-1 xenograft; conditions: for Average Body Weight, Day 7: initial weight, first treatment day
Method: DMSO was used as a vehicle for epothilones. Each mouse received ≦40 μL DMSO in all experiments.
Athymic nude mice (nu/nu) were used for MX-1 and MCF-7/Adr human mammary carcinoma xenografts. Mice were obtained from Taconic Laboratory Animals and Service (Germantown, N.Y.: outbred, Swiss background).

[3] = 0.3 mg/kg i.p. Q2Dx5 from day 7, day 11
[4] = 0.3 mg/kg i.p. Q2Dx5 from day 7, day 13
[5] = 0.3 mg/kg i.p. Q2Dx5 from day 7, day 15
[6] = 0.3 mg/kg i.p. Q2Dx5 from day 7, day 17
[7] = 0.6 mg/kg i.p. Q2Dx5 from day 7, day 11
[8] = 0.6 mg/kg i.p. Q2Dx5 from day 7, day 13
[9] = 0.6 mg/kg i.p. Q2Dx5 from day 7, day 15
[10] = 0.6 mg/kg i.p. Q2Dx5 from day 7, day 17
[11] = 0.6 mg/kg i.p. Q2Dx5 from day 9
[12] = 0.6 mg/kg i.p. Q2Dx5 from day 9, day 13
[13] = 0.6 mg/kg i.p. Q2Dx5 from day 9, day 15
[14] = 0.6 mg/kg i.p. Q2Dx5 from day 9, day 17
[15] = 0.6 mg/kg i.p. Q2Dx5 from day 9, day 19
[16] = high doses: dEpoB 25, EpoB 0.6, Taxol 10, Vinblastine 0.4 mg/kg i.p. Q2D from day 7
[17] = low doses: dEpoB 15, EpoB 0.3, Taxol 5, Vinblastine 0.2 mg/kg i.p. Q2D day 7-15

SMILES: C/C(=C\c1csc(C)n1)[C@@H]1C[C@@H]2O[C@]2(C)CCC[C@H](C)[C@H](O)[C@@H](C)C(=O)C(C)(C)[C@@H](O)CC(=O)O1 [Epothilone B, epothilone B]
- IC50 (MCF-7): 500 pM
- Died ([1]; 0.6 mg/kg QD × 4, 8 mice): 8
- Disappearance Duration ([1]; 0.6 mg/kg QD × 4, 8 mice): 8
- Number of mice died ([1]; 0.6 mg/kg, QD × 4, i.p., 8 mice): 8*
- body weight course ([1]; EpoB 0.6 mg/kg QDx4 i.p.): steady decreases in body weight until death
- decrease in lymphocytes ([1]; EpoB 0.6 mg/kg or dEpoB 25 mg/kg, QDx4, i.p., preliminary): 43%
- mice died of toxicity ([1]; 8 mice): all eight and 8 of 8
- mice died of toxicity ([1]; 8 mice, listed as EpoB): all eight
- reduction in average body weight ([1]; epothilone B 0.6 mg/kg i.p. for 4 days): 33%
- Toxicity Death ([2]; 0.3 mg/kg i.p. Q2Dx5 from day 7): 0/7
- Average Body Weight Change [2, 3]: +0.5 g
- Average Tumor Size (T/C) [2, 3]: 1.00
- Average Body Weight Change [2, 4]: +0.4 g
- Average Tumor Size (T/C) [2, 4]: 0.71
- Average Body Weight Change [2, 5]: -0.3 g
- Average Tumor Size (T/C) [2, 5]: 0.71
- Average Body Weight Change [2, 6]: -1.2 g
- Average Tumor Size (T/C) [2, 6]: 0.84
- Toxicity Death ([2]; 0.6 mg/kg i.p. Q2Dx5 from day 7): 3/7)##
- Average Body Weight Change [2, 7]: -0.3 g
- Average Tumor Size (T/C) [2, 7]: 1.08
- Average Body Weight Change [2, 8]: -1.3 g
- Average Tumor Size (T/C) [2, 8]: 0.73
- Average Body Weight Change [2, 9]: -2.1 g
- Average Tumor Size (T/C) [2, 9]: 0.81
- Average Body Weight Change [2, 10]: -2.1 g
- Average Tumor Size (T/C) [2, 10]: 0.74
- Toxicity Death [2, 11]: 0/6
- Tumor Disapp. [2, 11]: 0/6
- Average Body Weight Change [2, 12]: -0.9 g
- Average Tumor Size (T/C) [2, 12]: 0.67
- Average Body Weight Change [2, 13]: 0.5 g
- Average Tumor Size (T/C) [2, 13]: 0.63
- Average Body Weight Change [2, 14]: -3.3 g
- Average Tumor Size (T/C) [2, 14]: 0.61
- Average Body Weight Change [2, 15]: -3.4 g
- Average Tumor Size (T/C) [2, 15]: 0.51
- average body weight decrease ([2]; EpoB 0.3 mg/kg i.p. days 7-15): over 1 g
- average body weight decrease ([2]; EpoB 0.6 mg/kg i.p. days 7-15): > 2 g
- mice died of toxicity ([2]; EpoB 0.6 mg/kg i.p. days 7-15): three out of seven
- Therapeutic effect Rank Order ([2]; MX-1, i.p., comparison with Camptothecin, VBL, EpoB (order wraps over rows r7-r8)): Taxol ® > VBL, EpoB
- Average Body Weight (change), Day 11 [2, 16]: -0.3 g
- Average Body Weight (change), Day 13 [2, 16]: -1.3 g
- Average Body Weight (change), Day 15 [2, 16]: -2.1 g
- Average Body Weight Change, Day 17 [2, 16]: -2.1 g
- Average Tumor Volume (T/C), Day 11 [2, 16]: 1.08 T/C
- Average Tumor Volume (T/C), Day 13 [2, 16]: 0.73 T/C
- Average Tumor Volume (T/C), Day 15 [2, 16]: 0.81 T/C
- Average Tumor Volume (T/C), Day 17 [2, 16]: 0.74 T/C
- Note: died (mice died/total) [2, 16]: 3/7 died
- Average Body Weight, Day 7 [2, 16]: 27.4 g
- Average Body Weight, Day 7 [2, 17]: 26.9 g
- Average Body Weight (change), Day 11 [2, 17]: +0.5 g
- Average Body Weight (change), Day 13 [2, 17]: +0.4 g
- Average Body Weight (change), Day 15 [2, 17]: -0.3 g
- Average Body Weight Change, Day 17 [2, 17]: -1.2 g
- Average Tumor Volume (T/C), Day 11 [2, 17]: 1.00 T/C
- Average Tumor Volume (T/C), Day 13 [2, 17]: 0.71 T/C
- Average Tumor Volume (T/C), Day 15 [2, 17]: 0.71 T/C
- Average Tumor Volume (T/C), Day 17 [2, 17]: 0.84 T/C
- Note: died (mice died/total) [2, 17]: 0/7 died

SMILES: CC[C@]1(O)C[C@@H]2CN(CCc3c([nH]c4ccccc34)[C@@](C(=O)OC)(c3cc4c(cc3OC)N(C)[C@H]3[C@@](O)(C(=O)OC)[C@H](OC(C)=O)[C@]5(CC)C=CCN6CC[C@]43[C@@H]65)C2)C1 [Vinblastine, Vinblastine sulfate]
- Average Body Weight Change ([2]; 0.2 mg/kg i.p. Q2Dx5 from day 7, day 11): +0.6 g
- Average Body Weight Change ([2]; 0.2 mg/kg i.p. Q2Dx5 from day 7, day 13): +1.4 g
- Average Body Weight Change ([2]; 0.2 mg/kg i.p. Q2Dx5 from day 7, day 15): +2.3 g
- Average Body Weight Change ([2]; 0.2 mg/kg i.p. Q2Dx5 from day 7, day 17): +2.9 g
- Average Body Weight Change ([2]; 0.4 mg/kg i.p. Q2Dx5 from day 7, day 11): +0.8 g
- Average Body Weight Change ([2]; 0.4 mg/kg i.p. Q2Dx5 from day 7, day 13): +0.5 g
- Average Body Weight Change ([2]; 0.4 mg/kg i.p. Q2Dx5 from day 7, day 15): +1.9 g
- Average Body Weight Change ([2]; 0.4 mg/kg i.p. Q2Dx5 from day 7, day 17): +2.1 g
- Average Tumor Volume (T/C), Day 11 [2, 16]: 0.80 T/C
- Average Tumor Volume (T/C), Day 13 [2, 16]: 0.56 T/C
- Average Tumor Volume (T/C), Day 15 [2, 16]: 0.83 T/C
- Average Tumor Volume (T/C), Day 17 [2, 16]: 0.88 T/C
- Average Body Weight, Day 7 [2, 16]: 26.4 g
- Average Body Weight, Day 7 [2, 17]: 25.7 g
- Average Tumor Volume (T/C), Day 11 [2, 17]: 0.65 T/C
- Average Tumor Volume (T/C), Day 13 [2, 17]: 0.54 T/C
- Average Tumor Volume (T/C), Day 15 [2, 17]: 0.56 T/C
- Average Tumor Volume (T/C), Day 17 [2, 17]: 0.88 T/C
- Note: died (mice died/total) ([2]; male, athymic nude (nu/nu), mouse, in vivo): 0/7 died
- Note: died (mice died/total) ([2]; male, athymic nude (nu/nu), outbred, Swiss background, mouse, in vivo): 1/7 died
- Average Tumor Size (T/C) ([2]; mouse, in vivo): 0.88 and 0.65 and 0.54 and 0.56 and 0.80 and 0.83
